Source: PubChem BioAssay (NCI)
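These data come from cells grown in 96-well plates and exposed to compound for 48 hours at five concentrations. TGI marks complete inhibition of growth.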

How the values were obtained:
Test in all cases: NCI-60 cell line screen, 48 h
DU-145 prostate = system: DU-145 prostate
HL-60(TB) leukemia = system: HL-60(TB) leukemia
SNB-19 CNS = system: SNB-19 CNS
SW-620 colon = system: SW-620 colon
ACHN renal = system: ACHN renal
M14 melanoma = system: M14 melanoma
HS 578T breast = system: HS 578T breast
HCT-116 colon = system: HCT-116 colon
SK-MEL-5 melanoma = system: SK-MEL-5 melanoma
MCF7 breast = system: MCF7 breast

Compound | TGI (DU-145 prostate) | TGI (HL-60(TB) leukemia) | TGI (SNB-19 CNS) | TGI (SW-620 colon) | TGI (ACHN renal) | TGI (M14 melanoma) | TGI (HS 578T breast) | TGI (HCT-116 colon) | TGI (SK-MEL-5 melanoma) | TGI (MCF7 breast)
CC1=NNC(=O)C1C(CC(=O)c1c[nH]c2ccccc12)C(=O)O (stereo not drawn) | > 100 µM | > 100 µM | > 100 µM | > 100 µM | > 100 µM | > 100 µM | > 100 µM | > 100 µM | > 100 µM | –
O=c1c(C(c2ccc(Cl)cc2)c2c(O)c3ccccc3n(-c3ccccc3)c2=O)c(O)c2ccccc2n1-c1ccccc1 | – | – | > 100 µM | > 100 µM | 98.5 µM | – | – | > 100 µM | > 100 µM | –
Cn1c2ccccc2c(=O)c2cccc(C(=O)NC(CCCN=C(N)N)C(=O)O)c21 (stereo not drawn) | > 100 µM | – | > 100 µM | > 100 µM | > 100 µM | > 100 µM | > 100 µM | > 100 µM | > 100 µM | > 100 µM
Nc1ccc(S(=O)(=O)Nc2nccs2)cc1 | > 100 µM | > 100 µM | > 100 µM | > 100 µM | > 100 µM | > 100 µM | – | > 100 µM | > 100 µM | > 100 µM
COc1cccc(/C=N/n2c(C)n[nH]c2=O)c1 | – | – | > 100 µM | > 100 µM | > 100 µM | > 100 µM | 43.8 µM | > 100 µM | – | > 100 µM
NNC(=O)CSc1nc2ccccc2c(=O)n1N | > 100 µM | – | 44.6 µM | > 100 µM | 99.1 µM | > 100 µM | 98.8 µM | > 100 µM | > 100 µM | > 100 µM
CN1COCc2c1ccc1cc3ccc4c(c3nc21)COCN4S(C)(=O)=O | > 100 µM | – | > 100 µM | > 100 µM | > 100 µM | > 100 µM | > 100 µM | > 100 µM | > 100 µM | > 100 µM
O=C1O[C@H](c2ccc3c(c2)OCO3)[C@H]2CO[C@@H](c3ccc4c(c3)OCO4)[C@@H]12 | – | > 100 µM | > 100 µM | > 100 µM | > 100 µM | > 100 µM | > 100 µM | > 100 µM | > 100 µM | > 100 µM
CCC/C(Cl)=N\OC(=O)Nc1ccc(OC(F)(F)F)cc1 | 33.4 µM | > 20.6 µM | > 58.7 µM | – | 4.41 µM | 18.5 µM | > 70.7 µM | > 51.6 µM | 21.7 µM | 40.3 µM
CN1[C@@H]2C[C@@H](OC(=O)[C@H](CO)c3ccccc3)C[C@H]1[C@@H]1O[C@@H]12 | > 100 µM | – | – | > 100 µM | > 100 µM | > 100 µM | > 100 µM | > 100 µM | > 100 µM | > 100 µM
O=c1oc2ccc([N+](=O)[O-])cc2c(Nc2ccc3c(c2)Oc2ccccc2O3)c1[N+](=O)[O-] | > 100 µM | 40.2 µM | > 100 µM | – | > 100 µM | > 100 µM | > 100 µM | > 100 µM | 76 µM | 67.5 µM
Nc1[nH]nc2nc3ccc(C(F)(F)F)cc3nc12 | 36.8 µM | – | > 100 µM | 33.4 µM | > 100 µM | > 100 µM | > 100 µM | > 100 µM | > 100 µM | 31.1 µM
COc1cc(OC)c(C2c3cc4c(cc3OC(N3CCCC3)C2C)OCO4)c(OC)c1 (stereo not drawn) | 59.2 µM | – | 51.1 µM | > 100 µM | 30.7 µM | 28.6 µM | 18.1 µM | 16.7 µM | 29.4 µM | 48.1 µM
CCC1(C)C=Cc2c(cc(O)c3c(=O)c4ccccc4n(C)c23)O1 (stereo not drawn) | > 10 µM | – | > 10 µM | > 10 µM | > 10 µM | > 10 µM | > 10 µM | > 10 µM | > 10 µM | > 10 µM
CC(=O)OCC1OC(n2c3c(cc(C#N)c2=S)CCCCC3)C(OC(C)=O)C(OC(C)=O)C1OC(C)=O (stereo not drawn) | > 100 µM | > 100 µM | > 100 µM | – | > 100 µM | > 100 µM | > 100 µM | > 100 µM | > 100 µM | > 100 µM
COc1ccc(C2COc3cc(O)c(O)cc3C2)cc1 (stereo not drawn) | – | 5.41 µM | 214 µM | – | – | – | – | 42.1 µM | 72.4 µM | 176 µM
Cc1ccc(O)c(-c2cscn2)c1 | – | 22.2 µM | > 100 µM | > 100 µM | > 100 µM | > 100 µM | > 100 µM | > 100 µM | > 100 µM | > 100 µM
O=[N+]([O-])/C(C(Cl)=C(Cl)Cl)=C(\N1CCCCC1)n1cncn1 | 30.3 µM | – | 33.6 µM | 36.9 µM | 32.7 µM | 33.7 µM | 28.2 µM | 73.6 µM | 25.3 µM | 50.6 µM
COc1ccc(/C=C2\N=C(SC)NC2=O)cc1 | > 100 µM | – | > 100 µM | > 100 µM | – | > 100 µM | > 100 µM | > 100 µM | > 100 µM | > 100 µM
CC1CCCC(CC(=O)O)(CC(=O)O)C1 (stereo not drawn) | – | > 100 µM | > 100 µM | > 100 µM | > 100 µM | > 100 µM | > 100 µM | > 100 µM | > 100 µM | > 100 µM
O=C1c2cccnc2-c2nccc3c2c1nc1cc(Br)ccc13 | 0.421 µM | – | 0.88 µM | 0.162 µM | 0.609 µM | 0.163 µM | 0.942 µM | 0.0762 µM | 0.263 µM | 0.083 µM
CCOc1ccc(/C=C2/C(=O)N=C(NC(C)=O)N2C)cc1 | > 100 µM | 71.7 µM | > 100 µM | > 100 µM | > 100 µM | > 100 µM | – | > 100 µM | > 100 µM | > 100 µM
CCOC(=O)C1C2CCC1CC(=NNc1ccc([N+](=O)[O-])cc1[N+](=O)[O-])C2 (stereo not drawn) | > 50 µM | – | > 50 µM | > 50 µM | > 50 µM | > 50 µM | – | > 50 µM | > 50 µM | > 50 µM
COC(=O)C1CCCN1C(=O)C(Cc1cn(S(=O)(=O)c2ccc(C)cc2)cn1)NC(=O)OC(C)(C)C (stereo not drawn) | – | > 100 µM | > 100 µM | > 100 µM | > 100 µM | > 100 µM | > 100 µM | > 100 µM | > 100 µM | > 100 µM
